ChEMBL document CHEMBL1201862, “PubChem BioAssay data set” (2004)
The source made the active and inactive calls.

Experiments:
[1] = target: Beta-2 adrenergic receptor (Homo sapiens, UniProt P07550); assay: ADRB2 activation measured by internalization – cell-based, FAP fluorogen, flow cytometry, cherry pick 1, dose response (AID 588763); type: functional
Leucine aminopeptidase = target: T1, Leucine aminopeptidase (Plasmodium falciparum 3D7, UniProt Q8IL11); assay: P. falciparum M17LAP inhibitors, primary screen, biochemical, fluorogenic H-Leu-NHMec substrate, 1536-well (AID 1619); type: functional
T1 sequence (Q8IL11 whole entry): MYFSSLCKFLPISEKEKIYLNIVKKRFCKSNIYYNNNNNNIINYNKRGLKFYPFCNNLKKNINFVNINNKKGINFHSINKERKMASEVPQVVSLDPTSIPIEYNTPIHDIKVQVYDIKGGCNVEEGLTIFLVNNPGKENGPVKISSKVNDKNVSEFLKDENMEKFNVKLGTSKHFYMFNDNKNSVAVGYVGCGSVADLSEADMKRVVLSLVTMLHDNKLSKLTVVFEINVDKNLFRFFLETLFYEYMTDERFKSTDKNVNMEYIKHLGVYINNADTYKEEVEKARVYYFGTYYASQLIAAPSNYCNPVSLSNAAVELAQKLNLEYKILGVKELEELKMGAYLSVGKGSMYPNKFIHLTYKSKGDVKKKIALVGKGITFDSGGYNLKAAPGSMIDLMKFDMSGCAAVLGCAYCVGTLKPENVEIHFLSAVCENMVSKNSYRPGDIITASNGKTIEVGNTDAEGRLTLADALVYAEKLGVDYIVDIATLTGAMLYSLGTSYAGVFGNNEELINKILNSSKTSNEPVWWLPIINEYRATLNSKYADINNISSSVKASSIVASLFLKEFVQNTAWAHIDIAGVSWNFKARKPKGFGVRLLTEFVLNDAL

HEK293 = assay: cells; type: functional, cell-based; conditions: Homo sapiens
[2] = target: T2, Nuclear receptor subfamily 0 group B member 1 (Homo sapiens, UniProt P51843); assay: Luminescence-based cell-based high throughput dose response assay for inhibitors of the orphan nuclear receptor subfamily 0, group B, member 1 (DAX1; NR0B1). [Related pubchem assays (depositor defined):AID504766, AID504790]; type: functional
T2 sequence (P51843 whole entry): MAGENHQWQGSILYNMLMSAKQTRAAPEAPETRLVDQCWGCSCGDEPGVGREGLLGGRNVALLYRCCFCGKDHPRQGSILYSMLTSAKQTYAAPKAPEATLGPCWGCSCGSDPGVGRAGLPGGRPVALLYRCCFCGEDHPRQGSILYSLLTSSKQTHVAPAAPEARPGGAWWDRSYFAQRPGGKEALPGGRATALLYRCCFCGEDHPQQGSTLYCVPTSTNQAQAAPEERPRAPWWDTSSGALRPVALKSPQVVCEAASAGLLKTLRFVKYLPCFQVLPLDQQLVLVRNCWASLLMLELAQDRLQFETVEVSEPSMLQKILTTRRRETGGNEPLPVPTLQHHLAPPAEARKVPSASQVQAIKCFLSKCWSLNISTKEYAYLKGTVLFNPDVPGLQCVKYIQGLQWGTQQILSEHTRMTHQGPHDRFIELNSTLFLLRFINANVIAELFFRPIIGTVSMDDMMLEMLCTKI

CAAX prenyl protease 2 = CAAX prenyl protease 2 (Homo sapiens, UniProt Q9Y256); assay: inhibition of Ras-converting CAAX protease Rce1 – biochemical, yeast membranes, quenched-peptide fluorescence, cherry-pick, dose response (AID 588849)
Trypsin = Trypsin (Sus scrofa, UniProt P00761); assay: trypsin protease activity blockade – biochemical, quenched peptide fluorescence, cherry-pick, selectivity assay for Rce1 protease inhibitor project, dose response (AID 488789)
Chain of Trypsin (P00761 whole entry): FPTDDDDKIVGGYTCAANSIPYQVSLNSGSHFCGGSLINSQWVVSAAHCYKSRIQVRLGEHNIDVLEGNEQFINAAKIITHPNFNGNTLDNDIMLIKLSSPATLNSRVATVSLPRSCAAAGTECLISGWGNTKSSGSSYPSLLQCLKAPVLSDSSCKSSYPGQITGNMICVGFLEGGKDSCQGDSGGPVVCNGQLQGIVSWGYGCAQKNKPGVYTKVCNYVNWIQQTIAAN

Chain of CAAX prenyl protease 2 (Q9Y256 whole entry): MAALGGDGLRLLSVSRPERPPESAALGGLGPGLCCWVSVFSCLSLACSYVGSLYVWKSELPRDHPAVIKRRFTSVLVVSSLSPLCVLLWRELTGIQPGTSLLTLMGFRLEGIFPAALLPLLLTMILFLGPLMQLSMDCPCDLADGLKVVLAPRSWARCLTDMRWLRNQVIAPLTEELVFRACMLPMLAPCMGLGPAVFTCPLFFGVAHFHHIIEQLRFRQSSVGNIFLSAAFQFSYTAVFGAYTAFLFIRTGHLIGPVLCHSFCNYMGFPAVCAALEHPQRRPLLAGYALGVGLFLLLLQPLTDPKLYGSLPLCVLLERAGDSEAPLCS
Chain of Beta-2 adrenergic receptor (P07550 whole entry): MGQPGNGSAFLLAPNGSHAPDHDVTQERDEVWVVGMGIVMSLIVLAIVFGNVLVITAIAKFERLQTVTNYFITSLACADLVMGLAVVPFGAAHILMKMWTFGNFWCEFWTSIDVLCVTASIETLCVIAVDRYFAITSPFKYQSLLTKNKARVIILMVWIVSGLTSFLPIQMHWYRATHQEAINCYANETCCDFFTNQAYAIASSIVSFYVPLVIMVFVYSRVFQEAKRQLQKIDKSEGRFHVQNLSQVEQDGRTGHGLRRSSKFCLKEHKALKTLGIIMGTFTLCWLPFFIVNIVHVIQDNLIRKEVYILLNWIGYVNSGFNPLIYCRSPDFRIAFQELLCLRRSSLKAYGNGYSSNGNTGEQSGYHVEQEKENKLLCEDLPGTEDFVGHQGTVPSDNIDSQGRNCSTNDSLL

CCN(Cc1ccccc1)S(=O)(=O)c1cc(C(=O)NC(C)C2CC3CCC2C3)ccc1OC (configuration not stated)
EC50 [1]: 8.76 µM (active)

Cc1ccc(S(=O)(=O)Oc2cccc(N3C(=O)C4CC=CCC4C3=O)c2)cc1 (configuration not stated)
IC50 (Leucine aminopeptidase): 49.6 µM (active) | IC50 (HEK293): > 67.5 µM (inactive) | IC50 [2]: > 67.5 µM (inactive)

Cc1nc(N2CCCCC2C)c2c(C)c(C(=O)Nc3ccccc3C(F)(F)F)sc2n1 (configuration not stated)
AC50 (CAAX prenyl protease 2): 6.65 µM (active)

CCOC(=O)c1sc2nc(C3CC3)cc(-c3ccc(OC)cc3)c2c1N
AC50 (Trypsin): 0.642 µM (active) | AC50 (CAAX prenyl protease 2): 14.8 µM (active)
